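Protocol summary: plate cells (96-well), add compound at 5 concentrations, incubate 48 h, interpolate endpoints linearly. The concentration for 50% growth inhibition is given as GI50. TGI is the concentration that stops growth completely.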
Legend:
Experiment in all cases: NCI anticancer screen, dose series, 48 h
U251 CNS = tested on: U251 CNS
ACHN renal = tested on: ACHN renal
MCF7 breast = tested on: MCF7 breast
SN12C renal = tested on: SN12C renal
TK-10 renal = tested on: TK-10 renal
HS 578T breast = tested on: HS 578T breast
K-562 leukemia = tested on: K-562 leukemia
HCC-2998 colon = tested on: HCC-2998 colon
NCI-H226 lung = tested on: NCI-H226 lung
A498 renal = tested on: A498 renal
T-47D breast = tested on: T-47D breast
MDA-MB-231 breast = tested on: MDA-MB-231 breast
SK-OV-3 ovarian = tested on: SK-OV-3 ovarian
SNB-75 CNS = tested on: SNB-75 CNS
OVCAR-3 ovarian = tested on: OVCAR-3 ovarian
NCI-H460 lung = tested on: NCI-H460 lung
SK-MEL-5 melanoma = tested on: SK-MEL-5 melanoma
SF-539 CNS = tested on: SF-539 CNS
MALME-3M melanoma = tested on: MALME-3M melanoma
HCT-15 colon = tested on: HCT-15 colon
NCI/ADR-RES ovarian = tested on: NCI/ADR-RES ovarian
OVCAR-4 ovarian = tested on: OVCAR-4 ovarian
COLO 205 colon = tested on: COLO 205 colon
CAKI-1 renal = tested on: CAKI-1 renal
RXF 393 renal = tested on: RXF 393 renal
HT29 colon = tested on: HT29 colon
HL-60(TB) leukemia = tested on: HL-60(TB) leukemia
SNB-19 CNS = tested on: SNB-19 CNS
A549 NSCLC = tested on: A549 NSCLC
SF-268 CNS = tested on: SF-268 CNS
HOP-92 NSCLC = tested on: HOP-92 NSCLC
RPMI-8226 leukemia = tested on: RPMI-8226 leukemia
BT-549 breast = tested on: BT-549 breast
KM12 colon = tested on: KM12 colon
HCT-116 colon = tested on: HCT-116 colon
SF-295 CNS = tested on: SF-295 CNS
PC-3 prostate = tested on: PC-3 prostate
SR leukemia = tested on: SR leukemia
SW-620 colon = tested on: SW-620 colon
HOP-62 NSCLC = tested on: HOP-62 NSCLC
UACC-62 melanoma = tested on: UACC-62 melanoma
OVCAR-8 ovarian = tested on: OVCAR-8 ovarian
EKVX NSCLC = tested on: EKVX NSCLC
UO-31 renal = tested on: UO-31 renal
SK-MEL-2 melanoma = tested on: SK-MEL-2 melanoma
MDA-MB-435 = tested on: MDA-MB-435
NCI-H522 lung = tested on: NCI-H522 lung
786-0 renal = tested on: 786-0 renal
LOX IMVI melanoma = tested on: LOX IMVI melanoma
OVCAR-5 ovarian = tested on: OVCAR-5 ovarian
NCI-H23 lung = tested on: NCI-H23 lung
MOLT-4 leukemia = tested on: MOLT-4 leukemia
DU-145 prostate = tested on: DU-145 prostate
UACC-257 melanoma = tested on: UACC-257 melanoma
M14 melanoma = tested on: M14 melanoma
IGROV1 ovarian = tested on: IGROV1 ovarian
SK-MEL-28 melanoma = tested on: SK-MEL-28 melanoma
CCRF-CEM leukemia = tested on: CCRF-CEM leukemia

CCOC(=O)c1c(NN2CCN(CC(F)(F)F)CC2)oc(/C=C2\C=Nc3ncccc32)c1O
GI50 (U251 CNS): 4.01 µM
TGI (U251 CNS): 28 µM
GI50 (ACHN renal): 5.85 µM
TGI (ACHN renal): 77.4 µM
GI50 (MCF7 breast): 6.37 µM
TGI (MCF7 breast): 30.5 µM
GI50 (SN12C renal): 4.26 µM
TGI (SN12C renal): 42.6 µM
GI50 (TK-10 renal): 3.37 µM
TGI (TK-10 renal): 24 µM
GI50 (HS 578T breast): 0.913 µM
TGI (HS 578T breast): 6.72 µM
GI50 (K-562 leukemia): 2.14 µM
TGI (K-562 leukemia): > 100 µM
GI50 (HCC-2998 colon): 2.7 µM
TGI (HCC-2998 colon): 12.6 µM
GI50 (NCI-H226 lung): 1.73 µM
TGI (NCI-H226 lung): 27 µM
GI50 (A498 renal): 3.62 µM
TGI (A498 renal): 9.62 µM
GI50 (T-47D breast): 5.08 µM
TGI (T-47D breast): 34.8 µM
GI50 (MDA-MB-231 breast): 6.72 µM
TGI (MDA-MB-231 breast): 32.4 µM
GI50 (SK-OV-3 ovarian): 2.93 µM
TGI (SK-OV-3 ovarian): 19.8 µM
GI50 (SNB-75 CNS): 0.325 µM
TGI (SNB-75 CNS): 11.6 µM
GI50 (OVCAR-3 ovarian): 4.06 µM
TGI (OVCAR-3 ovarian): 19.4 µM
GI50 (NCI-H460 lung): 3.49 µM
TGI (NCI-H460 lung): 20.2 µM
GI50 (SK-MEL-5 melanoma): 2.55 µM
TGI (SK-MEL-5 melanoma): 10.6 µM
GI50 (SF-539 CNS): 2.33 µM
TGI (SF-539 CNS): 13.9 µM
GI50 (MALME-3M melanoma): 13 µM
TGI (MALME-3M melanoma): 29.4 µM
GI50 (HCT-15 colon): 6.59 µM
TGI (HCT-15 colon): 46.7 µM
GI50 (NCI/ADR-RES ovarian): 19.3 µM
TGI (NCI/ADR-RES ovarian): 57.8 µM
GI50 (OVCAR-4 ovarian): 6.17 µM
TGI (OVCAR-4 ovarian): 26.4 µM
GI50 (COLO 205 colon): 0.76 µM
TGI (COLO 205 colon): 11.1 µM
GI50 (CAKI-1 renal): 1.08 µM
TGI (CAKI-1 renal): 13.5 µM
GI50 (RXF 393 renal): 1.2 µM
TGI (RXF 393 renal): 4.19 µM
GI50 (HT29 colon): 2.47 µM
TGI (HT29 colon): 17.1 µM
GI50 (HL-60(TB) leukemia): 1.85 µM
TGI (HL-60(TB) leukemia): 4.67 µM
GI50 (SNB-19 CNS): 20.7 µM
TGI (SNB-19 CNS): > 100 µM
GI50 (A549 NSCLC): 5.2 µM
TGI (A549 NSCLC): 49.1 µM
GI50 (SF-268 CNS): 3.04 µM
TGI (SF-268 CNS): 16.1 µM
GI50 (HOP-92 NSCLC): 12.9 µM
TGI (HOP-92 NSCLC): 40.9 µM
GI50 (RPMI-8226 leukemia): 4.25 µM
TGI (RPMI-8226 leukemia): 20.7 µM
GI50 (BT-549 breast): 1.59 µM
TGI (BT-549 breast): 5.68 µM
GI50 (KM12 colon): 3.45 µM
TGI (KM12 colon): 15.3 µM
GI50 (HCT-116 colon): 2.09 µM
TGI (HCT-116 colon): 17.7 µM
GI50 (SF-295 CNS): 8.47 µM
TGI (SF-295 CNS): 37.4 µM
GI50 (PC-3 prostate): 4.04 µM
TGI (PC-3 prostate): 21.4 µM
GI50 (SR leukemia): 0.689 µM
TGI (SR leukemia): 3.81 µM
GI50 (SW-620 colon): 0.808 µM
TGI (SW-620 colon): 22.9 µM
GI50 (HOP-62 NSCLC): 5.03 µM
TGI (HOP-62 NSCLC): 21.8 µM
GI50 (UACC-62 melanoma): 4.83 µM
TGI (UACC-62 melanoma): 15.1 µM
GI50 (OVCAR-8 ovarian): 4.14 µM
TGI (OVCAR-8 ovarian): 20.6 µM
GI50 (EKVX NSCLC): 11.1 µM
TGI (EKVX NSCLC): 33.2 µM
GI50 (UO-31 renal): 5.11 µM
TGI (UO-31 renal): 28.9 µM
GI50 (SK-MEL-2 melanoma): 2.25 µM
TGI (SK-MEL-2 melanoma): 4.8 µM
GI50 (MDA-MB-435): 3.36 µM
TGI (MDA-MB-435): 16.8 µM
GI50 (NCI-H522 lung): 1.05 µM
TGI (NCI-H522 lung): 11.1 µM
GI50 (786-0 renal): 3.13 µM
TGI (786-0 renal): 18.8 µM
GI50 (LOX IMVI melanoma): 2.28 µM
TGI (LOX IMVI melanoma): 11.8 µM
GI50 (OVCAR-5 ovarian): 19.3 µM
TGI (OVCAR-5 ovarian): 67.5 µM
GI50 (NCI-H23 lung): 7 µM
TGI (NCI-H23 lung): 21.7 µM
GI50 (MOLT-4 leukemia): 2.79 µM
TGI (MOLT-4 leukemia): 9.37 µM
GI50 (DU-145 prostate): 4.75 µM
TGI (DU-145 prostate): 23.7 µM
GI50 (UACC-257 melanoma): 6.45 µM
TGI (UACC-257 melanoma): 25.1 µM
GI50 (M14 melanoma): 4.77 µM
TGI (M14 melanoma): 24.4 µM
GI50 (IGROV1 ovarian): 7.43 µM
TGI (IGROV1 ovarian): 47.8 µM
GI50 (SK-MEL-28 melanoma): 11 µM
TGI (SK-MEL-28 melanoma): 29.9 µM
GI50 (CCRF-CEM leukemia): 6.81 µM
TGI (CCRF-CEM leukemia): > 100 µM

Source: PubChem BioAssay (NCI)
